This is an account of results in US20260347372A1, “SMALL MOLECULE INHIBITORS OF KRAS G12D MUTANT” (MERCK SHARP & DOHME LLC, priority 2023, published 2026).

One experiment addresses KRAS G12V (Homo sapiens, UniProt P01116, G12V). Description: SOS-catalyzed nucleotide exchange assay, KRAS G12V (Procedure A). Format: biochemical. The note with it: GNE. From the text: (§1) Procedure for SOS-Catalyzed Nucleotide Exchange Assay for KRAS-WT, G12C/D/V, G13D, HRAS, and NRAS (Procedure A)
(§2) Recombinant KRAS-G12C protein used in this assay has an additional triple mutation (C51S/C80L/C118S). Whereas KRAS-WT, G12D/V, G13D, HRAS and NRAS are in context of their WT protein sequence background. Specifically, the SOS-catalyzed nucleotide exchange assay utilizes a preformed TR-FRET complex containing a specific biotinylated RAS protein (KRAS-WT, G12C/V/D, G13D, HRAS, NRAS; described above) with Bodipy-GDP, and Terbium-streptavidin. Compounds are preincubated with this complex for 60 minutes. Subsequently, recombinant human SOS protein and unlabeled GTP are added to initiate the exchange reaction. Small molecule inhibitors stabilize the Bodipy-GDP complex whereas the untreated protein rapidly exchanges Bodipy-GDP for unlabeled GTP resulting in reduced TR-FRET signal.
(§3) To assemble the preformed TR-FRET complexes, each biotinylated RAS protein is diluted to 2 μM in an EDTA Buffer (20 mM HEPES pH 7.5, 50 mM sodium chloride, 10 mM EDTA, and 0.01% Tween) and incubated at room temperature for one hour. This mixture is then further diluted to 90 nM in an Assay Buffer (20 mM HEPES pH 7.5, 150 mM sodium chloride, 10 mM magnesium chloride, and 0.005% Tween) containing 15 nM of Terbium-Streptavidin (Invitrogen, catalog #PV3577) and 900 nM of Bodipy-GDP (Invitrogen, catalog #G22360) and incubated at room temperature for six hours. It should be noted that this preformed TR-FRET complex for each of the RAS protein were made ahead of time, aliquoted and stored at −80° C. until the day of the experiment.
(§4) Each test compound (10 mM stock in DMSO) is diluted in DMSO to make a final-10-point, 3-fold dilution and is acoustically dispensed into a 384-well assay plate (Corning, catalog #3820) using an Echo 550 (Labcyte). Each well of the assay plate receives 3 μL of a specific 3×RAS preformed TR-FRET complex and 3 μL of Assay Buffer and is incubated at room temperature for 60 minutes (preincubation time). Each well then receives 3 μL of 3× recombinant human SOS protein and GTP (Sigma, G8877) in Assay Buffer and is incubated at room temperature for 30 minutes (G13D), 60 minutes (KRAS WT/G12C/D, H/NRAS) or 90 minutes for G12V. The final reaction in each well of 9 μL consists of 3 mM GTP, specific Ras and SOS proteins in the following concentrations: KRAS-G12C/SOS=3 nM/40 nM, KRAS-WT and G12D/SOS=1 nM/40 nM, KRAS-G12V/SOS=1.25 nM/160 nM, KRAS-G13D/SOS=1.25 nM/0 nM, HRAS and NRAS=1.25 nM/40 nM.
(§5) The time-resolved fluorescence resonance energy transfer (TR-FRET) signal is measured on an Envision (PerkinElmer) plate reader: Excitation filter=340 nm; emission1=495 nm; emission2=520 nm; dichroic mirror=D400/D505; delay time=[…]. The signal of each well is determined as the ratio of the emission at 520 nm to that at 495 nm. Percent effect of each well is determined after normalization to control wells containing DMSO (no effect) or a saturating concentration of inhibitor (max effect). The apparent effect as a function of compound concentration is fit to a four-parameter logistic equation.
(§6) For Example No. 14, nucleotide exchange assays for KRAS G12D, WT, G12C, and G12V were performed according to Procedure B. All the other compounds were tested according to Procedure A.

The target of the next experiment is T1, AsPC-1 cells (Homo sapiens, UniProt P01116, G12D).
T1 construct: p-ERK/total ERK AlphaSureFire read-out
T1 sequence (P01116 1-188 isoform P01116-2 G12D): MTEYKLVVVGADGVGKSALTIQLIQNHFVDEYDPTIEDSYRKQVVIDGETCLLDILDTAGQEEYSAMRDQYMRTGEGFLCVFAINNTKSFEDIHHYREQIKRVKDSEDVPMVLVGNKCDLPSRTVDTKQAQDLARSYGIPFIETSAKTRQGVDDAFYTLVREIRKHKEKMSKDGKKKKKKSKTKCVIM
Kind of experiment: Cellular phospho-ERK assay, AsPC-1 cells (KRAS G12D). Format: cell-based. The note with it: 2 hours, read-out: AsPC1 pERK IC50. The method, then: Procedure for Cellular Phospho-ERK Assay in KRAS Wild Type and Mutant (G12D, G12V) Cell Lines
PANC08.13 cells (ATCC® CRL-2551™), containing homozygous KRAS-G12D activating mutation, were cultured in growth medium made of RPMI1640-GlutaMAX™-I (ThermoFisher Scientific 61870) containing 15% heat inactivated fetal bovine serum (ThermoFisher Scientific 10091148)). AsPC-1 cells (ATCC® CRL-1682™), containing homozygous KRAS-G12D activating mutation, were cultured in T150 flask in growth medium (RPMI medium 1640-GlutaMAX™-I (ThermoFisher Scientific 61870) containing 10% fetal bovine serum (ThermoFisher Scientific 10091148)).
Cells for the assay were harvested in growth medium after TrypLE (ThermoFisher scientific 12604021) digestion and were seeded in a 384-well collagen coated cell culture plate (Corning 356702) at a density of 10,000-15,000 cells/20 μL/well, and incubated at 37° C., 5% CO2 overnight. The compound (with 10 mM stock concentration) dose-response titrations were prepared [30 μM final ERK detection assay concentration and 1:3 dilutions, 10-point dose response] and appropriate amounts (270 nL) of test compounds were dispensed in a 384-well intermediate plate using an Echo 550 liquid handler. 30 μL/well of RPMI medium 1640-GlutaMAX™-I was added to the intermediate plate and the contents of the intermediate plate (10 μL/well) were then transferred to the 384-well collagen coated cell culture plate, which was incubated at 37° C., 5% CO2 for 2 hours. After removal of medium from the collagen coated cell culture plate, cells were lysed in lysis buffer from Alpha SureFire® Ultra™ Multiplex p-ERK and total ERK assay kit (PerkinElmer MPSU-PTERK) containing Halt™ Protease and Phosphatase inhibitor cocktail (ThermoFisher Scientific 78446) at room temperature with constant shaking at 300 rpm for 30 minutes. The cell lysates were then transferred to an OptiPlate-384 plate (PerkinElmer 6005620), and the phosphorylation of ERK (p-ERK) and total ERK levels were detected by Alpha SureFire® Ultra™ Multiplex p-EEK kit and total ERK assay kit (PerkinElmer MPSU-PTERK) following the manufacturer's protocol. Assay plates were read on a EnVision Multimode Plate Reader (PerkinElmer), and the ratio of p-ERK vs. total ERK in each well was used as the final readout. Dose response curves were analyzed using a 4-parameter logistic model to calculate IC50 values using Spotfire software.

The next experiment has as its target KRAS G12D (Homo sapiens, UniProt P01116, G12D). Kind of experiment: SOS-catalyzed nucleotide exchange assay, KRAS G12D (Procedure A). Format: biochemical. The conditions noted are these: guanine nucleotide exchange (GNE).
Text: as §1, §2, §3, §4, §5, §6

The next experiment deals with KRAS WT (Homo sapiens, UniProt P01116). Kind of experiment: SOS-catalyzed nucleotide exchange assay, KRAS WT (Procedure A). It counts as biochemical. The note with it: GNE.
KRAS WT, sequence (P01116 with tags, fused parts or gaps isoform P01116-2): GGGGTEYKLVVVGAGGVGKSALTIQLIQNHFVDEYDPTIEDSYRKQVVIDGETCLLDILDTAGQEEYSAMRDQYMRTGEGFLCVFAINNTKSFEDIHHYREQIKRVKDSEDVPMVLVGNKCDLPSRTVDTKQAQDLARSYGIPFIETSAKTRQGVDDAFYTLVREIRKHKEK
Text: as §1, §2, §3, §4, §5, §6

Molecules are shown by their SMILES. pIC50: −log10 of the molar value.

KRAS G12D, sequence (P01116 with tags, fused parts or gaps isoform P01116-2 G12D): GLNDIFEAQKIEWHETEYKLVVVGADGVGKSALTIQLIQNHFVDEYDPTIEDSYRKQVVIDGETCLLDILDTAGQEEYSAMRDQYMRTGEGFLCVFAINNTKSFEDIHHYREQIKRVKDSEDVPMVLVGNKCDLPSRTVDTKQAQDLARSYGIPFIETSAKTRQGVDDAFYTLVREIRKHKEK
KRAS G12V, sequence (P01116 with tags, fused parts or gaps isoform P01116-2 G12V): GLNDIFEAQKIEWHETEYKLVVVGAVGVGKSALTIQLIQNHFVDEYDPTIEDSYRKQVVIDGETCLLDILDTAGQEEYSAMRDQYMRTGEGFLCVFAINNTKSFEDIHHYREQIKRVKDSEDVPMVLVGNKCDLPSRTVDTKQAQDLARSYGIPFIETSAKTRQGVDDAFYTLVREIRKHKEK

The pIC50 is the negative decadic logarithm of the IC50, by convention in mol/L. Consider `F[C@H]1CN2CCC[C@@]2(COc2nc(N3C[C@H]4CC[C@@H](C3)N4)c3c(n2)C2(CC2)c2c-3ccnc2-c2c(C3CC3)c(Cl)cc3[nH]ncc23)C1` (single isomer, unassigned) [Ex-115], for which the pIC50 was 5.67 against KRAS G12V, 6.28 at AsPC-1 cells, 8.05 on KRAS G12D and 5.69 at KRAS WT.
For the molecule `F/C=C1\CN2CCC[C@@]2(COc2nc(N3C[C@H]4CC[C@@H](C3)N4)c3c(n2)C2(CC2)c2c-3ccnc2-c2c(C3CC3)c(Cl)cc3[nH]ncc23)C1` (single isomer, unassigned) [Ex-116], the pIC50 at KRAS G12V was 6.09; on AsPC-1 cells, 6.43; on KRAS G12D it was 8.47; on KRAS WT, 6.11.
On to `Cc1cc2[nH]ncc2c(-c2nccc3c2sc2nc(OCCC4CCS(=O)(=O)CC4)nc(N4C[C@H]5CC[C@@H](C4)N5)c23)c1C(F)(F)F` [Ex-41, 4-(2-((4-((1R,5S)-3,8-diazabicyclo[3.2.1]octan-3-yl)-8-(6-methyl-5-(trifluoromethyl)-1H-indazol-4-yl)pyrido[4′,3′:4,5]thieno[2,3-d]pyrimidin-2-yl)oxy)ethyl)tetrahydro-2H-thiopyran 1,1-dioxide], for which the pIC50 on AsPC-1 cells was under 4.52; on KRAS G12D, 5.33.
Taken in the same sequence, the figures for `CCOC1(COc2nc(N3C[C@H]4CC[C@@H](C3)N4)c3c(n2)sc2c(-c4c(C(F)(F)F)c(C)cc5[nH]ncc45)nccc23)CCOC1` (stereo partly drawn) [Ex-42, 4-((1R,5S)-3,8-diazabicyclo[3.2.1]octan-3-yl)-2-((3-ethoxytetrahydrofuran-3-yl)methoxy)-8-(6-methyl-5-(trifluoromethyl)-1H-indazol-4-yl)pyrido[4′,3′:4,5]thieno[2,3-d]pyrimidine] were 5.19 and 5.51.
Consider `Cc1cc2[nH]ncc2c(-c2nccc3c2sc2nc(OCC45COC(C4)C5)nc(N4C[C@H]5CC[C@@H](C4)N5)c23)c1C(F)(F)F` [Ex-43, 2-((2-oxabicyclo[2.1.1]hexan-4-yl)methoxy)-4-((1R,5S)-3,8-diazabicyclo[3.2.1]octan-3-yl)-8-(6-methyl-5-(trifluoromethyl)-1H-indazol-4-yl)pyrido[4′,3′:4,5]thieno[2,3-d]pyrimidine], for which the pIC50 on AsPC-1 cells was 5.17; at KRAS G12D, 5.66.
For `COC1(COc2nc(N3C[C@H]4CC[C@@H](C3)N4)c3c(n2)sc2c(-c4c(C(F)(F)F)c(C)cc5[nH]ncc45)nccc23)CCOC1` (stereo partly drawn) [Ex-44, 4-((1R,5S)-3,8-diazabicyclo[3.2.1]octan-3-yl)-2-((3-methoxytetrahydrofuran-3-yl)methoxy)-8-(6-methyl-5-(trifluoromethyl)-1H-indazol-4-yl)pyrido[4′,3′:4,5]thieno[2,3-d]pyrimidine], the values for the pIC50 on AsPC-1 cells and against KRAS G12D were 5.33 and 5.58, respectively.
On the same counts, the results for `Cc1cc2[nH]ncc2c(-c2nccc3c2sc2nc(OC[C@H]4C[C@H](C#N)C4)nc(N4C[C@H]5CC[C@@H](C4)N5)c23)c1C(F)(F)F` [Ex-45, (1R,3r)-3-(((4-((1R,5S)-3,8-diazabicyclo[3.2.1]octan-3-yl)-8-(6-methyl-5-(trifluoromethyl)-1H-indazol-4-yl)pyrido[4′,3′:4,5]thieno[2,3-d]pyrimidin-2-yl)oxy)methyl)cyclobutane-1-carbonitrile] are 5.31 and 5.52.
Turning to `Cc1cc2[nH]ncc2c(-c2nccc3c2sc2nc(OCC4(C)CCCO4)nc(N4C[C@H]5CC[C@@H](C4)N5)c23)c1C(F)(F)F` (stereo partly drawn) [Ex-46, 4-((1R,5S)-3,8-diazabicyclo[3.2.1]octan-3-yl)-8-(6-methy1-5-(trifluoromethyl)-1H-indazol-4-yl)-2-((2-methyltetrahydrofuran-2-yl)methoxy)pyrido[4′,3′:4,5]thi-eno[2,3-d]pyrimidine], the pIC50 was 4.90 at AsPC-1 cells and 5.55 on KRAS G12D.
Taken in the same sequence, the figures for `Cc1cc2[nH]ncc2c(-c2nccc3c2sc2nc(OC[C@H]4CCCO4)nc(N4C[C@H]5CC[C@@H](C4)N5)c23)c1C(F)(F)F` [Ex-47, 4-((1R,5S)-3,8-diazabicyclo[3.2.1]octan-3-yl)-8-(6-methyl-5-(trifluoromethyl)-1H-indazol-4-yl)-2-(((R)-tetrahydrofuran-2-yl)methoxy)pyrido[4′,3′:4,5]thi-eno[2,3-d]pyrimidine] were 4.95 and 5.50.
On to `Cc1cc2[nH]ncc2c(-c2nccc3c2sc2nc(OCC4COC(C)(C)CO4)nc(N4C[C@H]5CC[C@@H](C4)N5)c23)c1C(F)(F)F` (stereo partly drawn) [Ex-48, 4-((1R,5S)-3,8-diazabicyclo[3.2.1]octan-3-yl)-2-((5,5-dimethy1-1,4-dioxan-2-yl)methoxy)-8-(6-methy1-5-(trifluoromethyl)-1H-indazol-4-yl)pyrido[4′,3′:4,5]thieno[2,3-d]pyrimidine], for which the pIC50 on AsPC-1 cells was 4.83; against KRAS G12D, 5.48.
`Cc1cc2[nH]ncc2c(-c2nccc3c2sc2nc(OCC4(C#N)CCOC4)nc(N4C[C@H]5CC[C@@H](C4)N5)c23)c1C(F)(F)F` (stereo partly drawn) [Ex-49, 3-(((4-((1R,5S)-3,8-diazabicyclo[3.2.1]octan-3-yl)-8-(6-methyl-5-(trifluoromethyl)-1H-indazol-4-yl)pyrido[4′,3′:4,5]thieno[2,3-d]pyrimidin-2-yl)oxy)methyl)tetrahydrofuran-3-carbonitrile]: the pIC50 at AsPC-1 cells is 5.22; against KRAS G12D it was 5.84.
As for `Cc1cc2[nH]ncc2c(-c2nccc3c2sc2nc(OCC4CCCN(S(C)(=O)=O)C4)nc(N4C[C@H]5CC[C@@H](C4)N5)c23)c1C(F)(F)F` (stereo partly drawn) [Ex-50, 4-((1R,5S)-3,8-diazabicyclo[3.2.1]octan-3-yl)-8-(6-methyl-5-(trifluoromethyl)-1H-indazol-4-yl)-2-((1-(methylsulfonyl)piperidin-3-yl)methoxy)pyrido[4′,3′:4,5]thi-eno[2,3-d]pyrimidine], the pIC50 at AsPC-1 cells was under 4.52; against KRAS G12D it was 5.62.
